Results taken from US11597703B2, “Caspase inhibitors and methods of use thereof” (Histogen Inc., priority 2019, dated 2023).

What was measured:
[1] = tested on: IL-1β; test: Inhibition of LPS-stimulated IL-1β in THP-1 cells (ELISA); format: cell-based, human; conditions: Homo sapiens, 10 micromolar, read-out: Percent Inhibition of IL1-β
Procedure: Compounds in the present invention were tested in THP-1 cells, a human monocyte cell line, to assess the inhibition of the inflammatory cytokine IL-1β. THP-1 cells (ATCC TIB-202) were grown in culture and seeded in 96 well plates at a concentration of 200,000 cells per well with a total volume of 150 μL. Plated cells were incubated overnight at 37 degrees C. under an atmosphere of 5% CO2. Media was removed from cells which were washed with PBS. Test compounds were diluted in DMSO stock solution and serially diluted appropriately for initial screening and IC50 determinations. LPS in serum free media (140 μL of […]) was added to each well to stimulate IL-1β production. IL-1β was measured by ELISA assay kit (R&D Systems) per the manufacturers instructions.
IC50 values for the inhibition of IL-1 in THP 1 cells were determined from dose response studies.

[2] = target: T1, Caspase 7 (Homo sapiens, UniProt P55210); test: Caspase 7 enzymatic inhibition assay, IC50; format: biochemical; conditions: read-out: Caspase 7 enzyme inhibition IC50
T1 construct: purchased Enzo Biosciences
T1 sequence (P55210 24-198 limits assumed): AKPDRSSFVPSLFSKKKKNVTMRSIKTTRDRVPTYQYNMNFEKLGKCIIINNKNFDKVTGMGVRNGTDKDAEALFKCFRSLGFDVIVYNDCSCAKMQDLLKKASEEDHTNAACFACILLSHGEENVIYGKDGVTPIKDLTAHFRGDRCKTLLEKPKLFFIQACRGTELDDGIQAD
T1 sequence (P55210 207-303 limits assumed): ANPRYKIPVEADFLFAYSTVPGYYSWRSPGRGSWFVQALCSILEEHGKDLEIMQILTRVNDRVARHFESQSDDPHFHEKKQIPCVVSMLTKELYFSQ
How it was run: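 IC50 values reflect inhibition of purified human caspase activity (caspase-3, caspase-6, caspase-7), measured with the enzyme supplier's standard assay procedure.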

[3] = target: T2, Caspase-1 (Homo sapiens, UniProt P29466); test: Caspase-1 enzyme inhibition assay (Ac-YVAD-pNA substrate), IC50; format: biochemical
T2 construct: purchased Enzo Biosciences
T2 sequence (P29466 120-297 limits assumed): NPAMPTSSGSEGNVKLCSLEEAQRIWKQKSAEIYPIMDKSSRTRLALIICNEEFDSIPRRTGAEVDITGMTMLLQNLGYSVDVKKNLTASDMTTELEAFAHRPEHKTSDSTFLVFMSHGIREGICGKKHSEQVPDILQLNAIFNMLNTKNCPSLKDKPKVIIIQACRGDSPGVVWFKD
T2 sequence (P29466 317-404 limits assumed): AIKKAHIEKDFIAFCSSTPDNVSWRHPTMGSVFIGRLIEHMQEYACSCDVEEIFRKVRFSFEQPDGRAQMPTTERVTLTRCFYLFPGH
How it was run: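 Buffer was 50 mM HEPES pH 7.4, 100 mM NaCl, 0.1% CHAPS, 1 mM EDTA, 10% glycerol and 10 mM DTT. Caspase-1 was reacted with 200 μM Ac-YVAD-pNA (final). Release of p-nitroaniline was followed continuously at 405 nm, and rates were taken from the linear slope (ε 10,500 M-1 cm-1).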

[4] = tested on: IL 18; test: Mouse in vivo model of peritoneal inflammation (LPS/ATP), IL 18 in peritoneal lavage fluid; design: species or system Mice; conditions: mouse peritonitis, IP injection
Procedure: (§1) Compounds of the present invention were tested in a mouse in vivo model of peritoneal inflammation (peritonitis). Mice were treated with intraperotonial injection of bacterial endotoxin, (LPS). After 1 hour, test compounds were administered by IP injection. After an additional hour, adenosine triphosphate (ATP) was administered by IP injection to further induce the production of the inflammatory cytokines, IL-1β and IL 18. After 0.5 hours, peritoneal lavage fluid was collected and analyzed for IL-1β and IL 18. An inhibitor of the NLRP 3 inflammasome, MCC950, was administered by IP injection and included as a reference test compound. […] IL18 levels were determined by a commercially available ELISA kit following the manufacture's instructions FIG. 3.

[5] = tested on: IL-1β; test: Mouse in vivo model of peritoneal inflammation (LPS/ATP), IL-1β in peritoneal lavage fluid; design: species or system Mice; conditions: mouse peritonitis, IP injection
Procedure: as §1

C[C@H](NC(=O)C(=O)Nc1c(F)cccc1F)C(=O)N[C@@H](CCC(=O)O)C(=O)COc1c(F)c(F)cc(F)c1F [Example 6, (S)-4-((S)-2-(2-((2,6-Difluorophenyl)amino)-2-oxoacetamido)propanamido)-5-oxo-6-(2,3,5,6-tetrafluorophenoxy)hexanoic acid]
inhibition at 10 µM [1]: > 90% | IC50 [2]: ≥ 1 µM | IC50 [3]: ≤ 0.01 µM | inhibition of the in vivo production of IL 18 [4]: statistically significant inhibition | inhibition of the in vivo production of IL-1β [5]: statistically significant inhibition
